# According to ChEMBL document CHEMBL3885861, “Open TG-GATES”:
# Species: Rattus norvegicus
# Experiment: Open TG-GATES - Regimen: Daily Repeat
# Format: toxicity, organism-based, Sprague-Dawley
# Set-up: regimen Daily Repeat, gender Male, age 6 weeks
# Conditions: in vivo, po, route gavage; for APTT / Bas / Eos / Fbg / Hb / Ht / Lym / MCH / MCHC / MCV / Mono / Neu / PT / Plat / RBC / Ret / WBC: tissue Blood; for LIVER: tissue Liver; for A/G / ALP / ALT / AST / BUN / CRE / Ca / Cl / DBIL / GLC / IP / K / LDH / Na / PL / RALB / TBIL / TC / TG / TP / gamma-GTP: tissue Plasma
# [1] = 0 mg/kg, 72 h, dose level Control, time 3 day
# [2] = 0 mg/kg, […], dose level Control, time 7 day
# [3] = 0 mg/kg, […], dose level Control, time 14 day
# [4] = 0 mg/kg, […], dose level Control, time 28 day
# [5] = 5 mg/kg, 72 h, dose level Low, time 3 day
# [6] = 5 mg/kg, […], dose level Low, time 7 day
# [7] = 5 mg/kg, […], dose level Low, time 14 day
# [8] = 5 mg/kg, […], dose level Low, time 28 day
structure (smiles),measurement,setting,value
C=C(C)[C@H]1Cc2c(ccc3c2O[C@@H]2COc4cc(OC)c(OC)cc4[C@@H]2C3=O)O1 [ROTENONE],TERMINAL_BW,[1],213.4 g
same,APTT,[1],16 s
same,Bas,[1],0%
same,Eos,[1],1%
same,Fbg,[1],211.8 mg/dL
same,Hb,[1],13.2 g/dL
same,Ht,[1],40.7%
same,Lym,[1],77.8%
same,MCH,[1],20.8 pg
same,MCHC,[1],32.4%
same,MCV,[1],64.1 fL
same,Mono,[1],7.8%
same,Neu,[1],14%
same,PT,[1],11.8 s
same,Plat,[1],118 x10_4/uL
same,RBC,[1],635 x10_4/ul
same,Ret,[1],6.1%
same,WBC,[1],92.8 x10_2/uL
same,LIVER,[1],10 g
same,A/G,[1],2.3
same,ALP,[1],1677.6 IU/L
same,ALT,[1],37.8 IU/L
same,AST,[1],67.4 IU/L
same,BUN,[1],18 mg/dL
same,CRE,[1],0.4 mg/dL
same,Ca,[1],11.3 mg/dL
same,Cl,[1],104.2 meq/L
same,DBIL,[1],0.014 mg/dL
same,GLC,[1],187.2 mg/dL
same,IP,[1],7.1 mg/dL
same,K,[1],4.4 meq/L
same,LDH,[1],96.6 IU/L
same,Na,[1],140.6 meq/L
same,PL,[1],141.8 mg/dL
same,RALB,[1],3.8 g/dL
same,TBIL,[1],0.042 mg/dL
same,TC,[1],77.6 mg/dL
same,TG,[1],105 mg/dL
same,TP,[1],5.5 g/dL
same,gamma-GTP,[1],0.4 IU/L
same,TERMINAL_BW,[2],254 g
same,TERMINAL_BW,[3],305.5 g
same,TERMINAL_BW,[4],378.4 g
same,APTT,[2],15.9 s
same,Bas,[2],0%
same,Eos,[2],1%
same,Fbg,[2],239.4 mg/dL
same,Hb,[2],13.2 g/dL
same,Ht,[2],40.2%
same,Lym,[2],80%
same,MCH,[2],21.1 pg
same,MCHC,[2],32.8%
same,MCV,[2],64.3 fL
same,Mono,[2],6%
same,Neu,[2],13.2%
same,PT,[2],11.6 s
same,Plat,[2],122.4 x10_4/uL
same,RBC,[2],626.2 x10_4/ul
same,Ret,[2],5.5%
same,WBC,[2],113.8 x10_2/uL
same,APTT,[3],14.9 s
same,Bas,[3],0%
same,Eos,[3],1%
same,Fbg,[3],241.8 mg/dL
same,Hb,[3],13.9 g/dL
same,Ht,[3],41.9%
same,Lym,[3],73.6%
same,MCH,[3],20.5 pg
same,MCHC,[3],33.1%
same,MCV,[3],61.8 fL
same,Mono,[3],4.6%
same,Neu,[3],21%
same,PT,[3],11.3 s
same,Plat,[3],125.6 x10_4/uL
same,RBC,[3],678.4 x10_4/ul
same,Ret,[3],3.8%
same,WBC,[3],106.4 x10_2/uL
same,APTT,[4],18 s
same,Bas,[4],0%
same,Eos,[4],1%
same,Fbg,[4],217.6 mg/dL
same,Hb,[4],14.9 g/dL
same,Ht,[4],45%
same,Lym,[4],72%
same,MCH,[4],19.7 pg
same,MCHC,[4],33.1%
same,MCV,[4],59.3 fL
same,Mono,[4],7.2%
same,Neu,[4],19.8%
same,PT,[4],12.5 s
same,Plat,[4],115 x10_4/uL
same,RBC,[4],758.8 x10_4/ul
same,Ret,[4],2%
same,WBC,[4],107.2 x10_2/uL
same,LIVER,[2],12.8 g
same,LIVER,[3],14.2 g
same,LIVER,[4],15.3 g
same,A/G,[2],2.1
same,ALP,[2],1286.8 IU/L
same,ALT,[2],35.2 IU/L
same,AST,[2],60.6 IU/L
same,BUN,[2],19 mg/dL
same,CRE,[2],0.4 mg/dL
same,Ca,[2],11.5 mg/dL
same,Cl,[2],104.6 meq/L
same,DBIL,[2],0.014 mg/dL
same,GLC,[2],195.4 mg/dL
same,IP,[2],7.7 mg/dL
same,K,[2],4.5 meq/L
same,LDH,[2],71.8 IU/L
same,Na,[2],140.4 meq/L
same,PL,[2],157.2 mg/dL
same,RALB,[2],3.9 g/dL
same,TBIL,[2],0.034 mg/dL
same,TC,[2],81.2 mg/dL
same,TG,[2],132.2 mg/dL
same,TP,[2],5.8 g/dL
same,gamma-GTP,[2],1 IU/L
same,A/G,[3],2.1
same,ALP,[3],1512 IU/L
same,ALT,[3],36.4 IU/L
same,AST,[3],67.2 IU/L
same,BUN,[3],18.4 mg/dL
same,CRE,[3],0.4 mg/dL
same,Ca,[3],11.5 mg/dL
same,Cl,[3],104.8 meq/L
same,DBIL,[3],0.01 mg/dL
same,GLC,[3],186 mg/dL
same,IP,[3],6.9 mg/dL
same,K,[3],4.5 meq/L
same,LDH,[3],111.6 IU/L
same,Na,[3],139.6 meq/L
same,PL,[3],156 mg/dL
same,RALB,[3],4 g/dL
same,TBIL,[3],0.03 mg/dL
same,TC,[3],80 mg/dL
same,TG,[3],131.8 mg/dL
same,TP,[3],5.9 g/dL
same,gamma-GTP,[3],1 IU/L
same,A/G,[4],2
same,ALP,[4],1248 IU/L
same,ALT,[4],32.2 IU/L
same,AST,[4],58.6 IU/L
same,BUN,[4],18.2 mg/dL
same,CRE,[4],0.4 mg/dL
same,Ca,[4],10.9 mg/dL
same,Cl,[4],106.8 meq/L
same,DBIL,[4],0.01 mg/dL
same,GLC,[4],182.2 mg/dL
same,IP,[4],5.7 mg/dL
same,K,[4],4.5 meq/L
same,LDH,[4],62.8 IU/L
same,Na,[4],141.2 meq/L
same,PL,[4],134.8 mg/dL
same,RALB,[4],3.8 g/dL
same,TBIL,[4],0.03 mg/dL
same,TC,[4],62 mg/dL
same,TG,[4],182.2 mg/dL
same,TP,[4],5.7 g/dL
same,gamma-GTP,[4],1 IU/L
same,TERMINAL_BW,[5],226.1 g
same,APTT,[5],17.7 s
same,Bas,[5],0%
same,Eos,[5],1%
same,Fbg,[5],212.2 mg/dL
same,Hb,[5],13 g/dL
same,Ht,[5],39.1%
same,Lym,[5],76.2%
same,MCH,[5],21.3 pg
same,MCHC,[5],33.2%
same,MCV,[5],64.1 fL
same,Mono,[5],5.6%
same,Neu,[5],17.2%
same,PT,[5],12.1 s
same,Plat,[5],129 x10_4/uL
same,RBC,[5],610.6 x10_4/ul
same,Ret,[5],7.7%
same,WBC,[5],114.4 x10_2/uL
same,LIVER,[5],11.2 g
same,A/G,[5],2.2
same,ALP,[5],1376 IU/L
same,ALT,[5],37.2 IU/L
same,AST,[5],67.4 IU/L
same,BUN,[5],19.2 mg/dL
same,CRE,[5],0.4 mg/dL
same,Ca,[5],11.6 mg/dL
same,Cl,[5],104.8 meq/L
same,DBIL,[5],0.014 mg/dL
same,GLC,[5],188.2 mg/dL
same,IP,[5],7.5 mg/dL
same,K,[5],4.5 meq/L
same,LDH,[5],111.2 IU/L
same,Na,[5],142.4 meq/L
same,PL,[5],152.4 mg/dL
same,RALB,[5],3.8 g/dL
same,TBIL,[5],0.032 mg/dL
same,TC,[5],85.6 mg/dL
same,TG,[5],78 mg/dL
same,TP,[5],5.6 g/dL
same,gamma-GTP,[5],0.4 IU/L
same,TERMINAL_BW,[6],258.8 g
same,TERMINAL_BW,[7],318.2 g
same,TERMINAL_BW,[8],393.8 g
same,APTT,[6],15.9 s
same,Bas,[6],0%
same,Eos,[6],0.8%
same,Fbg,[6],227.4 mg/dL
same,Hb,[6],13.4 g/dL
same,Ht,[6],40.6%
same,Lym,[6],68.2%
same,MCH,[6],21.5 pg
same,MCHC,[6],33%
same,MCV,[6],65.3 fL
same,Mono,[6],9.6%
same,Neu,[6],21.6%
same,PT,[6],11.6 s
same,Plat,[6],117.4 x10_4/uL
same,RBC,[6],622.8 x10_4/ul
same,Ret,[6],5.7%
same,WBC,[6],93.6 x10_2/uL
same,APTT,[7],15.7 s
same,Bas,[7],0%
same,Eos,[7],1%
same,Fbg,[7],238.2 mg/dL
same,Hb,[7],13.9 g/dL
same,Ht,[7],41.7%
same,Lym,[7],75.8%
same,MCH,[7],20.6 pg
same,MCHC,[7],33.2%
same,MCV,[7],62.2 fL
same,Mono,[7],5.2%
same,Neu,[7],18.4%
same,PT,[7],11.4 s
same,Plat,[7],130.8 x10_4/uL
same,RBC,[7],671.4 x10_4/ul
same,Ret,[7],3.8%
same,WBC,[7],138.2 x10_2/uL
same,APTT,[8],19 s
same,Bas,[8],0%
same,Eos,[8],1.2%
same,Fbg,[8],204.2 mg/dL
same,Hb,[8],14.7 g/dL
same,Ht,[8],44.3%
same,Lym,[8],74.6%
same,MCH,[8],19.3 pg
same,MCHC,[8],33.2%
same,MCV,[8],58.2 fL
same,Mono,[8],5%
same,Neu,[8],19.6%
same,PT,[8],12.6 s
same,Plat,[8],117.6 x10_4/uL
same,RBC,[8],761.4 x10_4/ul
same,Ret,[8],2.1%
same,WBC,[8],107.4 x10_2/uL
same,LIVER,[6],13.1 g
same,LIVER,[7],15.3 g
same,LIVER,[8],16.3 g
same,A/G,[6],2.1
same,ALP,[6],1367.8 IU/L
same,ALT,[6],39.6 IU/L
same,AST,[6],65 IU/L
same,BUN,[6],18.2 mg/dL
same,CRE,[6],0.4 mg/dL
same,Ca,[6],11.7 mg/dL
same,Cl,[6],103.2 meq/L
same,DBIL,[6],0.018 mg/dL
same,GLC,[6],202.2 mg/dL
same,IP,[6],7.4 mg/dL
same,K,[6],4.4 meq/L
same,LDH,[6],110.6 IU/L
same,Na,[6],140 meq/L
same,PL,[6],150.8 mg/dL
same,RALB,[6],3.8 g/dL
same,TBIL,[6],0.04 mg/dL
same,TC,[6],79.4 mg/dL
same,TG,[6],106.6 mg/dL
same,TP,[6],5.6 g/dL
same,gamma-GTP,[6],0.6 IU/L
same,A/G,[7],2.1
same,ALP,[7],1397.6 IU/L
same,ALT,[7],36.6 IU/L
same,AST,[7],68 IU/L
same,BUN,[7],19.4 mg/dL
same,CRE,[7],0.4 mg/dL
same,Ca,[7],11.8 mg/dL
same,Cl,[7],105 meq/L
same,DBIL,[7],0.012 mg/dL
same,GLC,[7],188.6 mg/dL
same,IP,[7],6.9 mg/dL
same,K,[7],4.6 meq/L
same,LDH,[7],142.4 IU/L
same,Na,[7],139.2 meq/L
same,PL,[7],164.2 mg/dL
same,RALB,[7],3.9 g/dL
same,TBIL,[7],0.03 mg/dL
same,TC,[7],85.4 mg/dL
same,TG,[7],152.4 mg/dL
same,TP,[7],5.8 g/dL
same,gamma-GTP,[7],1 IU/L
same,A/G,[8],1.8
same,ALP,[8],1025.4 IU/L
same,ALT,[8],33 IU/L
same,AST,[8],64.2 IU/L
same,BUN,[8],18 mg/dL
same,CRE,[8],0.4 mg/dL
same,Ca,[8],10.7 mg/dL
same,Cl,[8],105.8 meq/L
same,DBIL,[8],0.01 mg/dL
same,GLC,[8],175.2 mg/dL
same,IP,[8],6.2 mg/dL
same,K,[8],4.5 meq/L
same,LDH,[8],101.8 IU/L
same,Na,[8],141.2 meq/L
same,PL,[8],134.8 mg/dL
same,RALB,[8],3.8 g/dL
same,TBIL,[8],0.032 mg/dL
same,TC,[8],65.6 mg/dL
same,TG,[8],143 mg/dL
same,TP,[8],6 g/dL
same,gamma-GTP,[8],1 IU/L
